Test results taken from patent US20250270619A1, “COMPOSITIONS, KITS AND METHODS FOR DIRECT AMPLIFICATION FROM CRUDE BIOLOGICAL SAMPLES” (LIFE TECHNOLOGIES CORPORATION, priority 2021, published 2025).

Test system: SARS-Cov-2 virus particles
Test: RT-qPCR screening of surfactant treatment solutions for disruption of SARS-CoV-2 virus particles
Conditions: for effect of heating the virus-surfactant mixture on Cq values (compatibility with RT-qPCR): then 92° C. for 5 minutes
[1] = Example 1, 2X concentration per surfactant, 30 minutes ambient, without heating
[2] = Example 2, surfactant 0.02-0.08%, absence of a heating step

Compound | disruption of virus particles (Cq vs virus in Tris-EDTA buffer) [1] | effect of heating the virus-surfactant mixture on Cq values (compatibility with RT-qPCR) (Example 1, 30 minutes ambient) | also measured
CCCCCCCCCCCC(=O)OCCOCCOCCOCCOCCOCCOCCOCCOCCOCCOCCOCCOCCOCCOCCOCCOCCOCCOCCOCCOCC(OCCOCCOCCOCCOCCOCCOCCOCCOCCOCCOCCOCCOCCOCCOCCOCCOCCOCCOCCOCCO)C1OCC(OCCOCCOCCOCCOCCOCCOCCOCCOCCOCCOCCOCCOCCOCCOCCOCCOCCOCCOCCOCCO)C1OCCOCCOCCOCCOCCOCCOCCOCCOCCOCCOCCOCCOCCOCCOCCOCCOCCOCCOCCOCCO (stereo not drawn) [Tween 20, polysorbate 20] | effective at disrupting the virus particles | – | –
CCCCCCCCCCCC[N+](C)(C)C.[Br-] [DoTAB] | ineffective at disrupting the virus particles | – | –
O=S(=O)([O-])CCC[n+]1ccccc1 [NDSB201] | ineffective at disrupting the virus particles | – | –
CCCCCCCCCC[N+](C)(C)C.[Br-] [DeTAB] | – | compatible with RT-qPCR | –
Benzalkonium Chloride [BZK] | effective at disrupting the virus particles | – | effect on downstream RT-qPCR (Example 2, surfactant 0.08%): inhibitory to downstream RT-qPCR
CCCCCCCCCCCC[N+](C)(C)CC.[Br-] [EDMAB, Dodecylethyldimethylammonium bromide] | ineffective at disrupting the virus particles | compatible with RT-qPCR | –
C[C@H](CCC(=O)NCCC[N+](C)(C)CC(O)CS(=O)(=O)[O-])[C@H]1CC[C@H]2[C@@H]3[C@H](O)C[C@@H]4C[C@H](O)CC[C@]4(C)[C@H]3C[C@H](O)[C@]12C (stereo partly drawn) [CHAPSO, 3-[(3-cholamidopropyl)dimethylammonio]-2-hydroxy-1-propanesulfonate] | ineffective at disrupting the virus particles | compatible with RT-qPCR | –
CCCCCCCCCC[N+](C)(C)CCCCCCCCCC.[Br-] [DDAB, Didecyldimethylammonium bromide] | effective at disrupting the virus particles | higher average Cq values | –
CCCCCCCC/C=C\CCCCCCCC(=O)OCCOCC(OCCO)C1OCC(OCCO)C1OCCO (stereo not drawn) [Tween 80] | ineffective at disrupting the virus particles | compatible with RT-qPCR | –
nonyl phenoxypolyethoxylethanol [NP-40 alternative] | effective at disrupting the virus particles | – | –
N-(Alkyl C10-C16)-N,N-dimethylglycine betaine [Empigen BB] | effective at disrupting the virus particles | – | –
CCCCCCCCCCCCCC[N+](C)(C)CCCS(=O)(=O)[O-] [Zwittergent 3-14, n-Tetradecyl-N,N-dimethyl-3-ammonio-1-propanesulfonate] | effective at disrupting the virus particles | – | disruption of virus particles (Cq vs virus in Tris-EDTA buffer) [2]: effective at disrupting the virus particles
CCCCCCCCCCCC[N+](C)(C)[O-] [LDAO, N,N Dimethydodecylamine-N-oxide] | effective at disrupting the virus particles | – | disruption of virus particles (Cq vs virus in Tris-EDTA buffer) [2]: effective at disrupting the virus particles; virus disruption vs incubation time (Example 3, 0.02% LDAO solution (2X), 0 to 60 minutes room temperature, no heating): rapidly disrupted the virus particles
